Marks after values point to notes of the source that are not given here.
Columns and labels:
[1] = tested on: AMPK in Huh-7 cells; test: Activation activity on AMPK in Huh-7 cells (Western Blot); type: cell-based; settings: 10 μM, 12 h, Western Blot gray scale, relative to DMSO = 1
Protocol: The activation activity of a compound on AMPK in Huh-7 cells was detected by using Western Blot.
Cell culture conditions: Huh-7 cells were cultured in an incubator with 5% CO2 at 37° C. in DMEM complete medium (containing 10% fetal calf serum and 1% streptomycin/penicillin).
Antibody: anti-AMPK (CST, 2532S); anti-pAMPK (CST, 2535S).
Western Blot experiment: the influence of the compound on phosphorylation level of the AMPK in the Huh-7 cells was detected: cells with more than 90% cells alive were taken for the experiment. In a 12-well plate, the Huh-7 cells were plated in the plate at 250000 cells per well, the plate was placed in the incubator with 5% CO2 at 37° C. for culture, an original culture medium was discarded after 12 h, a complete medium containing the pentacyclic triterpenoid saponin was added, a final concentration of subject pentacyclic triterpenoid saponin was set to be 10 μM, and an administration time was set to be 12 h. A positive control compound employs AICAR (100 μM), metformin (70 μM) or A-769662 (100 μM). Then proteins were extracted for Western Blot detection.
Experimental result: a Western Blot experimental result was subjected to gray scale scanning, a p-AMPK/AMPK ratio of negative control DMSO was defined as 1, and a p-AMPK/AMPK ratio of the subject compound was a relative ratio of a negative control group. The larger the numerical value was, the stronger the activation activity of the AMPK of the compound was.

[2] = tested on: human ADPKD cyst lining epithelial cell lines WT9-12; test: Proliferation of polycystic kidney epithelial cells (CCK-8 method); type: cell-based; settings: polycystic kidney epithelial cells; 10 μM, 48 h; CCK-8; n = 6
Source text: Cell and reagent: complete media for human ADPKD cyst lining epithelial cell lines WT9-12 and DMEM were purchased from ATCC Company; fetal calf serums were purchased from Gibco Company; Cell Counting Kit-8 was purchased from DOJINDO Company; Click-iT® EdU Imaging Kits were purchased from Invitrogen™ Thermo Fisher Scientific Company; Caspase -3/CPP32 Colorimetric Assay Kit was purchased from BioVision Company; Annexin V/PI double-staining flow type cell apoptosis detection kits were purchased from Bender Company; and anti-Phospho-(AMPKa, mTOR, p70S6K, 4E-BP1) antibodies were purchased from Cell Signaling Technology Company.
The influence of 2-DG on proliferation of the polycystic kidney epithelial cells was detected with a CCK-8 method: a DMEM complete medium containing 10% fetal calf serum (FBS) was prepared. The polycystic kidney epithelial cells were cultured in an incubator with 5% CO2 at 37° C. after being recovered, a solution was replaced every other day, the polycystic kidney epithelial cells were passaged every 2-3 days, and the cells were in a growing state of adhering to the wall. After trypsin enzyme digestion, cells were resuspended by using a complete medium, the concentration of a polycystic kidney epithelial cell suspension was regulated to be 3×10^7/L, the polycystic kidney epithelial cell suspension was inoculated to 96-well plate by […] per well for culture for 24 h, and the suspension was replaced by a culture medium containing 0.1% FBS for synchronization for 24 h.

[3] = tested on: high fat diet induced NASH model rats; test: High fat diet (HFD) induced NASH rat model; type: in vivo; set-up: MDA: unit not given here
Protocol: Animal: 32 SD male rats of SPF level with 6 weeks old and 220 g were purchased from Beijing Vital River Laboratory Animal Technology Co., Ltd. All the animals maintained 12 h alternative circadian rhythm with free access to food.
Reagent: the ginsenoside Ro (I) was purchased from Shanghai Boka Chemistry Technology Co., Ltd; obeticholic acid (OCA) was purchased from Jiangsu Vcare PharmaTech Co., Ltd; high fat diets were purchased from Research Diets (D12492, 60 kcal %); and standard feeds were purchased from Research Diets (D12450B, 10 kcal %).
The rats were randomly divided into 4 groups based on the weight: a control group (CHOW), a high fat diet model group (HFD), a positive drug obeticholic acid (OCA, 5 mg/Kg) group (HFD+OCA) and a ginsenoside Ro (Ro for short, 5 mg/kg) group (HFD+Ro). The control group was fed with the standard feeds and drank water normally; and the rest groups were fed with the high fat diets, drank 10% aqueous sucrose solution for replacing the water and were modeled for 20 weeks.
After 20 weeks, the control group and the high fat diet model group were given with a CMC-Na solution with the volume fraction of 0.5% intragastrically every day, the HFD+OCA group was given with the obeticholic acid (5 mg/Kg) intragastrically every day, and the HFD+Ro was given with the ginsenoside Ro (5 mg/Kg) intragastrically every day. Administration was conducted for 8 weeks, during which, the control group was given with the standard feeds and drank the water normally, and the rest three groups were given with the high fat diets and drank 10% aqueous sucrose solution. The rats in each group were weighed every day, weights, hairs, feces and activity conditions were carefully observed and recorded.
The rats were deprived of food but not water for 12 h in advance; and the next morning, blood was taken from eye sockets, the rats were sacrificed, and livers were harvested. Right liver lobule tissues were fixed with 4% paraformaldehyde for HE stained slicing. A part of liver tissues were divided into 3 parts, which were snap-frozen in liquid nitrogen for subsequent detection of other indexes.
Whole blood was left to still standing for 2 h at room temperature, centrifugation was conducted for 15 min at 3000 rpm, and a serum was collected. 100 Mg of liver tissues were taken and homogenized with 0.9 mL of precooled normal saline, a homogenate was centrifuged for 15 min at 4° C. and 3000 rpm, and a supernatant was taken. Both of the serum and the supernatant were sent to Pathologic Department of Hospital of Integrated Traditional Chinese and Western Medicine in Jiangsu Province for determination of levels of triglyceride (TG), total cholesterol (TC), low density lipoprotein cholesterin (LDL-c) and high density lipoprotein cholesterol (HDL-c) in the serum and levels of the TG and the TC in the supernatant of the homogenate of the liver tissues with the full-automatic biochemical analyzer.
Pretreated tissues were sent to Google Biotechnology Co., Ltd for preparing HE stained slices and oil red stained slices.
Liver tissues preserved at −80° C. were put in the liquid nitrogen, about 10 mg of the liver tissues were quickly dissected out, 500 μL of precooled tissue lysate was added, and the tissues were homogenized with a homogenizer and then left to lyse on ice for 30 min; and centrifugation was conducted for 15min at 4° C. and 12000 rpm, […] of a supernatant was sucked to a clean EP tube, […] of the supernatant was taken for BCA protein quantification, […] of 5*loading buffer was added in the rest protein supernatant for denaturing by boiling, SDS-PAGE electrophoresis was conducted subsequently, the proteins were transferred onto a PVDF membrane, then incubation and elution of a relevant antibody were conducted, and finally, a chemiluminescence apparatus was employed for imaging analysis.

[4] = HFD NASH rats, summary in words
[5] = HFD induced NASH model rats, 5 mg/Kg, n = 8
[6] = serum of HFD induced NASH model rats, 5 mg/Kg, n = 8

madecassoside [(VI)]
pAMPK/AMPK ratio [1]: 2.27
Inhibition rate (%) [2]: 76.3 ± 2.3 %
inflammatory responses of the livers [3, 4]: inhibit
lipid accumulation, caused by the high fat diets, of the rat livers [3, 4]: effectively lower
Liver TC [3, 5]: 0.472 ± 0.201** mmoL/gprot
Liver TG [3, 5]: 1.240 ± 0.213** mmoL/gprot
Serum LDL-c [3, 5]: 47.25 ± 7.45* mg/dL
Serum TG [3, 5]: 18.83 ± 4.11** mg/dL
ALT [3, 6]: 65.86 ± 10.43*** U/L
AST [3, 6]: 127.21 ± 9.34* U/L
MDA [3, 6]: 11.59 ± 2.88*
